In this test the test system is CT26 challenge tumors. The experiment in a line: Anti-tumor vaccination assay (whole-cell vaccine, live CT26 challenge). The format is in vivo, Balb/c mice. The note with it: challenge tumor at day 26; mice immunized with CT26 cells treated in vitro (plasma 300 mJ or Cisplatin 50 μM 24 hours). How it is done: To ascertain whether the DAMP signals elicited by plasma could enhance immune responses against cancer, a vaccination assay was performed. […] Cells were prepared for inoculation and injected into the left flank as a whole-cell vaccine to allow an immune response to develop. One week after immunization, mice were challenged with live CT26 cancer cells on the opposite flank and tumor growth was monitored twice a week until day 26 when the study was terminated as a subset of the animals reached IACUC-approved endpoints (FIG. 8A). CT26 cells treated with media only or Cisplatin (50 μM for 24 hours), a non-ICD inducer, [60] were used as controls.
Cisplatin-vaccine was prepared from cells incubated for 24 hours in Cisplatin media. Media-Vaccine was prepared from cells cultured in regular, complete media for 24 hours. Cisplatin- and media-vaccines were used as controls.
After a 24-hour incubation 3×10^6 cells in 100 μL of PBS were inoculated subcutaneously into the left flank of Balb/c mice. Seven days later, mice were challenged with 3×10^5 live CT26 cells subcutaneously injected into the right flank. Tumors were measured twice weekly with calipers and all mice were euthanized on […].

`N.N.[Cl][Pt][Cl]` [Cisplatin]: the mean tumor volume is 1041.8±208.3 mm^3.

Values taken from patent publication US11219118B2 (Drexel University, priority 2018, dated 2022).
